Measurements from patent publication US9155302B2, “Active substance combinations” (priority 2005, dated 2015).

Experiments:
Myzus persicae = Myzus persicae test, dipped cabbage leaves; format: in vivo; conditions: 100 ppm, after 6 d
Experimental: The determined kill rates are calculated using Colby's formula (see sheet 1).

Phaedon cochleariae = Phaedon cochleariae test, dipped cabbage leaves
Alternaria mali = Alternaria mali test (in vitro)/microtitre plates; format: cell-based; conditions: 3 ppm, after 4 d
Experimental: (§1) The microtest is carried out in microtitre plates using potato dextrose broth PDB) as liquid test medium. The active compounds are applied as technical-grade a.i., dissolved in acetone. A spore suspension of Alternaria mali is used for inoculation. After 4 days of incubation in the dark and with shaking (10 Hz), the transparency in each filled cavity of the microtitre plates is determined with the aid of a spectrophotometer.
(§2) 0% means an efficacy which corresponds to the growth in the controls, whereas an efficacy of 100% means that no fungal growth is observed.

Botrytis cinerea = Botrytis cinerea test (in vitro)/microtitre plates; format: cell-based; conditions: 3 ppm, after 5 d
Experimental: as §1, with “(PDB)” for “PDB)”, “Botrytis cinerea” for “Alternaria mali”, “5” for “4”
as §2

Plutella xylostella = Plutella xylostella test, dipped cabbage leaves; format: in vivo; conditions: after 6 d

## N#Cc1nn(-c2c(Cl)cc(C(F)(F)F)cc2Cl)c(N)c1[S+]([O-])C(F)(F)F (stereo not drawn) [(6.2.1) fipronil, fipronil]
Myzus persicae
  Kill rate in % after d, found: 65%

## CS/C(C)=N\OC(=O)N(C)SN(C)C(=O)O/N=C(\C)SC [(3.1.2) thiodicarb, thiodicarb]
Phaedon cochleariae; 100 ppm, after 4 d
  Kill rate in % after d, found: 0%

## Cc1nn(C)c(F)c1C(=O)Nc1ccccc1C(C)CC(C)C (stereo not drawn) [(1-2), N-[2-(1,3-dimethylbutyl)phenyl]-5-fluoro-1,3-dimethyl-1H-pyrazole-4-carboxamide]
Alternaria mali
  Kill rate in % after d, found: 48%
Myzus persicae
  Kill rate in % after d, found: 0%
Botrytis cinerea
  Efficacy in % after d, found: 16%
Phaedon cochleariae; 100 ppm, after 4 d
  Kill rate in % after d, found: 0%
Phaedon cochleariae; 100 ppm, after 6 d
  Kill rate in % after d, found: 0%

## CN/C(=N\[N+](=O)[O-])NCc1cnc(Cl)s1 [(2.1.1) clothianidin, clothianidin]
Alternaria mali
  Kill rate in % after d, found: 8%
Plutella xylostella; 20 ppm
  Kill rate in % after d, found: 20%
Phaedon cochleariae; 0.8 ppm, after 6 d
  Kill rate in % after d, found: 0%

## O=[N+]([O-])NC1=NCCN1Cc1ccc(Cl)nc1 [(2.1.2) imidacloprid, imidacloprid]
Botrytis cinerea
  Efficacy in % after d, found: 3%
Plutella xylostella; 4 ppm
  Kill rate in % after d, found: 20%
Phaedon cochleariae; 0.8 ppm, after 6 d
  Kill rate in % after d, found: 40%

## CNC(=O)Oc1cc(C)c(SC)c(C)c1 [(3.1.1) methiocarb, methiocarb]
Myzus persicae
  Kill rate in % after d, found: 0%

## spinosad [(5.1.1) spinosad]
Phaedon cochleariae; 0.8 ppm, after 6 d
  Kill rate in % after d, found: 80%
